Measurements: patent US10828289B2, “Hair follicle stem cell activation and hair growth” (THE REGENTS OF THE UNIVERSITY OF CALIFORNIA, priority 2016, dated 2020)
“Also recorded” adds a separate entry of the source.

How the values were obtained:
Format in all cases: in vivo, mouse
c-Myc = assay: Immunoblotting of total protein preps from topically treated skin: c-Myc; conditions: 2 topical doses of 50 uM (48 hours), vs vehicle control
Source text: (§1) Mice. Animals were acquired from Jackson Labs (K15-CrePR, Lgr5-CreER and Lgr6-CreER), Rutter Lab (Mpc^fl/fl) and Seth Lab (Ldha^fl/fl) and maintained under conditions set forth by IUCUC and ARC. For experiments that include analysis of the telogen stage of the hair cycle, animals were harvested at post-natal day 50, for telogen-anagen transition animals were harvested at day 70, and for anagen animals were harvested at post-natal day 90. For experiments that include analysis of transgenic animals, K15-CrePR animals were shaved and treated by intraperitoneal injections of mifepristone and Lgr5-CreER and Lgr6-CreER animals were shaved and treated with tamoxifen (10 mg/ml dissolved in sunflower seed oil, 2 mg per day for 3 days) during telogen (post-natal day 50), and monitored for hair regrowth following shaving. For FIGS. 6A-6G, wildtype C57BL/6J animals were shaved at post-natal day 50 and treated topically with Transderma Plo Gel Ultramax Base (TR220) (vehicle) or RCGD423 (50 uM) for indicated periods of time. Both male and female animals were used in this study in approximately equal numbers with no apparent difference in phenotype between genders. […]
(§2) Histology, Immunostaining and Immunoblotting. […] Images were collected on an Olympus BX43 Upright Microscope and Zeiss Model Axio Imager M1 Upright Fluorescence Microscope. […]

n-Myc = assay: Immunoblotting of total protein preps from topically treated skin: n-Myc; conditions: 2 topical doses of 50 uM (48 hours), vs vehicle control
Source text: as §1, §2

Ldha = assay: Immunoblotting of total protein preps from topically treated skin: Ldha; conditions: 2 topical doses of 50 uM (48 hours), vs vehicle control
Source text: as §1, §2

Ldh [1] = assay: Plate-reader Ldh activity assay on lysates from total epidermis after topical treatment; conditions: vs vehicle
Source text: as §1, with “shaving.” for “shaving. For FIGS. 6A-6G, wildtype C57BL/6J animals were shaved at post-natal day 50 and treated topically with Transderma Plo Gel Ultramax Base (TR220) (vehicle) or RCGD423 (50 uM) for indicated periods of time. Both male and female animals were used in this study in approximately equal numbers with no apparent difference in phenotype between genders.”
Plate-reader Ldh assay. Ldh activity was determined in cell lysates by measuring the formation of soluble XTT formazan in direct relation to production of NADH over time at 475 nm at 37° C. using a Synergy-MX plate reader (Biotek Instruments). […] Protein content was determined using the BCA Protein Assay Kit (Thermo Scientific Pierce). […] Ldh activity was determined in cell lysates by measuring the change in absorbance of their common substrate or product, NADH, over time at 340 nm at 25° C. using a Synergy-MX plate reader (Biotek Instruments).

Ldh [2] = assay: In situ Ldh activity staining of skin sections after topical treatment; conditions: epidermis and dermis
Source text: as §1, with “genders. All phenotypes described are representative of a minimum of n=3 littermate pairs as indicated in the description of each experiment.” for “genders.”

lactate = assay: LC-MS-based metabolomics of lactate after topical treatment; conditions: 48 hours, vs vehicle
Source text: as §1, with “time.” for “time. Both male and female animals were used in this study in approximately equal numbers with no apparent difference in phenotype between genders.”
Mass spectrometry-based metabolomics analysis. […] The samples were analyzed with an UltiMate 3000RSLC (Thermo Scientific) coupled to a Q Exactive mass spectrometer (Thermo Scientific). […] Metabolites were quantified with TraceFinder 3.3 using accurate mass measurements (<3 ppm) and retention times.

Stat-3 = assay: Immunostaining with phospho-Stat3 antibody in HFSCs after topical treatment
Source text: as §1, §2

HFSCs = assay: Immunohistochemistry for Ki-67 in HFSCs after topical treatment; conditions: same tissue
Source text: as §1, §2

pStat1 = assay: IHC for pStat1 in topically treated skin; conditions: topical, shaved mice day 50, skin harvested 48 hours after treatment
Experimental: (§3) FIG. 5. Stimulation of Jak-Stat signaling and the hair cycle. RCGD423 was applied topically to shaved mice at day 50. 48 hours after treatment, the skin was harvested and prepared for IHC. […] Scale bars indicate 20 micrometers.
as §1, with “shaving.” for “shaving. For FIGS. 6A-6G, wildtype C57BL/6J animals were shaved at post-natal day 50 and treated topically with Transderma Plo Gel Ultramax Base (TR220) (vehicle) or RCGD423 (50 uM) for indicated periods of time. Both male and female animals were used in this study in approximately equal numbers with no apparent difference in phenotype between genders.”
as §2

pStat5 = assay: IHC for pStat5 in topically treated skin; conditions: topical, shaved mice day 50, skin harvested 48 hours after treatment
Experimental: as §3
as §1, with “shaving.” for “shaving. For FIGS. 6A-6G, wildtype C57BL/6J animals were shaved at post-natal day 50 and treated topically with Transderma Plo Gel Ultramax Base (TR220) (vehicle) or RCGD423 (50 uM) for indicated periods of time. Both male and female animals were used in this study in approximately equal numbers with no apparent difference in phenotype between genders.”
as §2

hair cycle = assay: Topical treatment of shaved animals in telogen (day 50), hair cycle observation
Source text: Mice. Animals were acquired from Jackson Labs (K15-CrePR, Lgr5-CreER and Lgr6-CreER), Rutter Lab (Mpc^fl/fl) and Seth Lab (Ldha^fl/fl) and maintained under conditions set forth by IUCUC and ARC. For experiments that include analysis of the telogen stage of the hair cycle, animals were harvested at post-natal day 50, for telogen-anagen transition animals were harvested at day 70, and for anagen animals were harvested at post-natal day 90. For experiments that include analysis of transgenic animals, K15-CrePR animals were shaved and treated by intraperitoneal injections of mifepristone and Lgr5-CreER and Lgr6-CreER animals were shaved and treated with tamoxifen (10 mg/ml dissolved in sunflower seed oil, 2 mg per day for 3 days) during telogen (post-natal day 50), and monitored for hair regrowth following shaving. For FIGS. 6A-6G, wildtype C57BL/6J animals were shaved at post-natal day 50 and treated topically with Transderma Plo Gel Ultramax Base (TR220) (vehicle) or RCGD423 (50 uM) for indicated periods of time. Both male and female animals were used in this study in approximately equal numbers with no apparent difference in phenotype between genders. All phenotypes described are representative of a minimum of n=3 littermate pairs as indicated in the description of each experiment. No statistical measure was used to determine the sample size beforehand, nor were statistics used to measure effects, as the results were essentially positive or negative as represented in the figures. The results described include data from all treated animals. The investigators were not blinded to allocation during the experimental data collection, nor were the experiments randomized. The results shown were representative images from at least three independently treated animals, and genotyping was performed both before and after animal treatment for confirmation.

[3] = topical treatment of animals in telogen (day 50)

Which c-Myc protein levels (c-Myc) does the source give for `Brc1ccc(Nc2nc(-c3ccccc3)cs2)cc1` [RCGD423] here?
Its c-Myc protein levels is “increased; also recorded: induced”.

And the n-Myc protein levels (n-Myc)?
Its n-Myc protein levels is “increased; also recorded: induced”.

What about the Ldha protein levels (Ldha) of the same compound?
Its Ldha protein levels is “increased; also recorded: induced”.

And the “Ldh activity, in vitro measurement on lysates from total epidermis” value (Ldh [1])?
Its value is “increase in activity”.

And the “Ldh activity, in situ staining” value (Ldh [2])?
Its value is “strong induction”.

And the lactate level (lactate)?
Its lactate level is “large increase”.

And the “Stat-3 activation (phospho-Stat3 immunostaining)” value (Stat-3)?
The value was “activated”.

What about the “Ki-67 in HFSCs” value (HFSCs) of the same compound?
The value was “induction”.

And the “effect on pStat1” value (pStat1)?
Its value is “does not dramatically affect”.

What about the “effect on pStat5” value (pStat5) of the same compound?
The value was “does not dramatically affect”.

And the hair cycle (hair cycle; [3])?
The hair cycle was “robust acceleration of the hair cycle”.

What about the interfollicular epidermis proliferation (hair cycle; [3]) of the same compound?
Its interfollicular epidermis proliferation is “minor hyperproliferation of the interfollicular epidermis”.

What about the “observed phenotype (entry into anagen)” value (hair cycle; topical, 50 uM, after 5 doses) of the same compound?
The value was “pigmentation and hair growth, indicative of entry into anagen”.
